According to PubChem BioAssay AID330 (DTP/NCI, 2004):
Where “and” joins values, the source holds several entries; their conditions need not be identical. Identical values can stand only once. Inconclusive results and toxic doses are left out.

Tested on: P388 leukemia ip, CD2F1 mice, survival T/C
Test: NCI In Vivo Anticancer Drug Screen. Data for tumor model P388 Leukemia (intraperitoneal) in CD2F1 (CDF1) mice
Details: endpoint: median survival time, higher = longer survival
Procedure, shortened: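 Mice carrying the transplanted tumor received test compound or vehicle. Survival was recorded in each group, and the value is the treated-group measurement divided by that of the vehicle-treated control group.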

[1] = dose: 50.0 mg/kg/injection, schedule: Q01DX009 (ip), vehicle: saline with Tween-80
[2] = dose: 100.0 mg/kg/injection, schedule: Q01DX009 (ip), vehicle: saline with Tween-80
[3] = dose: 100.0 mg/kg/injection, schedule: Q04DX003 (ip), vehicle: saline with Tween-80
[4] = dose: 200.0 mg/kg/injection, schedule: Q01DX009 (ip), vehicle: saline with Tween-80
[5] = dose: 60.0 mg/kg/injection, schedule: Q01DX005 (ip), vehicle: saline with Tween-80
[6] = dose: 120.0 mg/kg/injection, schedule: Q01DX005 (ip), vehicle: saline with Tween-80
[7] = dose: 100.0 mg/kg/injection, schedule: Q04DX002 (ip), vehicle: saline with Tween-80
[8] = dose: 200.0 mg/kg/injection, schedule: Q04DX002 (ip), vehicle: saline with Tween-80
[9] = dose: 50.0 mg/kg/injection, schedule: Q01DX009 (ip), vehicle: Klucel (hydroxypropylcellulose) (HPC)
[10] = dose: 240.0 mg/kg/injection, schedule: Q01DX005 (ip), vehicle: saline with Tween-80
[11] = dose: 12.5 mg/kg/injection, schedule: Q01DX005 (ip), vehicle: Klucel (hydroxypropylcellulose) (HPC)
[12] = dose: 25.0 mg/kg/injection, schedule: Q01DX005 (ip), vehicle: Klucel (hydroxypropylcellulose) (HPC)
[13] = dose: 60.0 mg/kg/injection, schedule: Q01DX005 (ip), vehicle: Klucel (hydroxypropylcellulose) (HPC)
[14] = dose: 120.0 mg/kg/injection, schedule: Q01DX005 (ip), vehicle: Klucel (hydroxypropylcellulose) (HPC)
[15] = dose: 50.0 mg/kg/injection, schedule: Q01DX005 (ip), vehicle: Klucel (hydroxypropylcellulose) (HPC)
[16] = dose: 100.0 mg/kg/injection, schedule: Q01DX005 (ip), vehicle: Klucel (hydroxypropylcellulose) (HPC)
[17] = dose: 200.0 mg/kg/injection, schedule: Q01DX005 (ip), vehicle: Klucel (hydroxypropylcellulose) (HPC)
[18] = dose: 50.0 mg/kg/injection, schedule: Q01DX005 (ip), vehicle: saline with Tween-80
[19] = dose: 100.0 mg/kg/injection, schedule: Q01DX005 (ip), vehicle: saline with Tween-80
[20] = dose: 200.0 mg/kg/injection, schedule: Q01DX005 (ip), vehicle: saline with Tween-80
[21] = dose: 25.0 mg/kg/injection, schedule: Q01DX005 (ip), vehicle: saline with Tween-80

S=c1[nH]nc(NC2CCCCC2)s1
T/C [1]: 90 % of control | T/C [2]: 90 % of control | T/C [3]: 91 % of control | T/C [4]: 90 % of control | T/C (dose: 200.0 mg/kg/injection, schedule: Q04DX003 (ip), vehicle: saline with Tween-80): 91 % of control

CCOc1ccc(Br)cc1/C=N/NS(=O)(=O)c1ccc(C)cc1
T/C [2]: 123 % of control

NC(=O)C(N)C(F)c1ccccc1 (stereo not drawn)
T/C [5]: 102 % of control | T/C [6]: 95 % of control

C=Cn1c([N+](=O)[O-])cnc1/C=C/c1ccc(C(=O)N(CCCC)CCCC)cc1
T/C [7]: 100 % of control | T/C [8]: 100 % of control | T/C (dose: 400.0 mg/kg/injection, schedule: Q04DX002 (ip), vehicle: saline with Tween-80): 89 % of control

C[As](C)SCCC(CCCCC(=O)O)S[As](C)C (stereo not drawn)
T/C (dose: 12.5 mg/kg/injection, schedule: Q01DX009 (ip), vehicle: Klucel (hydroxypropylcellulose) (HPC)): 109 % of control and 111 % of control | T/C (dose: 25.0 mg/kg/injection, schedule: Q01DX009 (ip), vehicle: Klucel (hydroxypropylcellulose) (HPC)): 122 % of control | T/C (dose: 25.0 mg/kg/injection, schedule: Q04DX003 (ip), vehicle: saline with Tween-80): 106 % of control | T/C [9]: 100 % of control | T/C (dose: 50.0 mg/kg/injection, schedule: Q04DX003 (ip), vehicle: saline with Tween-80): 97 % of control | T/C [3]: 108 % of control

CS(=O)CCN=Cc1ccc(N=Nc2ccc(O)cc2)cc1 (stereo not drawn)
T/C [5]: 103 % of control | T/C [6]: 103 % of control | T/C [10]: 97 % of control

O=CN1CCCc2cc(C(=O)O)ccc21
T/C (dose: 50.0 mg/kg/injection, schedule: Q01DX001 (ip), vehicle: saline sonified): 100 % of control | T/C (dose: 100.0 mg/kg/injection, schedule: Q01DX001 (ip), vehicle: saline sonified): 100 % of control | T/C (dose: 200.0 mg/kg/injection, schedule: Q01DX001 (ip), vehicle: saline sonified): 105 % of control

C=C(CCCC)C(=O)OC
T/C [1]: 102 % of control | T/C [2]: 111 % of control | T/C [4]: 108 % of control

CN(C)C(=Nc1ccc(NC(=O)c2ccc(C(=O)Nc3ccc(N=C(Nc4ccccc4)N(C)C)cc3)cc2)cc1)Nc1ccccc1
T/C (dose: 6.25 mg/kg/injection, schedule: Q01DX005 (ip), vehicle: Klucel (hydroxypropylcellulose) (HPC)): 101 % of control | T/C [11]: 101 % of control | T/C [12]: 100 % of control

Cc1nn(CCO)c(C)c1N=[N+]([O-])c1c(C)nn(CCO)c1C
T/C (dose: 10.0 mg/kg/injection, schedule: Q01DX009 (ip), vehicle: suspension in saline): 114 % of control | T/C (dose: 20.0 mg/kg/injection, schedule: Q01DX009 (ip), vehicle: suspension in saline): 120 % of control | T/C (dose: 25.0 mg/kg/injection, schedule: Q04DX003 (ip), vehicle: Klucel (hydroxypropylcellulose) (HPC)): 111 % of control and 116 % of control | T/C (dose: 30.0 mg/kg/injection, schedule: Q01DX009 (ip), vehicle: suspension in saline): 116 % of control | T/C (dose: 50.0 mg/kg/injection, schedule: Q04DX003 (ip), vehicle: Klucel (hydroxypropylcellulose) (HPC)): 115 % of control and 122 % of control | T/C (dose: 60.0 mg/kg/injection, schedule: Q01DX009 (ip), vehicle: suspension in saline): 120 % of control | T/C (dose: 100.0 mg/kg/injection, schedule: Q04DX003 (ip), vehicle: Klucel (hydroxypropylcellulose) (HPC)): 114 % of control and 96 % of control

COc1ccccc1CNCCCCCCNCCSSCCNCCCCCCNCc1ccccc1OC
T/C (dose: 12.5 mg/kg/injection, schedule: Q04DX002 (ip), vehicle: suspension in saline): 102 % of control | T/C (dose: 25.0 mg/kg/injection, schedule: Q04DX002 (ip), vehicle: suspension in saline): 97 % of control

Nn1c(-c2cnns2)n[nH]c1=S
T/C (dose: 100.0 mg/kg/injection, schedule: Q01DX001 (ip), vehicle: Klucel (hydroxypropylcellulose) (HPC)): 100 % of control | T/C (dose: 200.0 mg/kg/injection, schedule: Q01DX001 (ip), vehicle: Klucel (hydroxypropylcellulose) (HPC)): 100 % of control | T/C (dose: 400.0 mg/kg/injection, schedule: Q01DX001 (ip), vehicle: Klucel (hydroxypropylcellulose) (HPC)): 105 % of control

CC(=O)NC1CCOC1=O (stereo not drawn)
T/C (dose: 12.5 mg/kg/injection, schedule: Q01DX009 (ip), vehicle: water): 95 % of control | T/C (dose: 25.0 mg/kg/injection, schedule: Q01DX009 (ip), vehicle: water): 87 % of control | T/C (dose: 50.0 mg/kg/injection, schedule: Q01DX009 (ip), vehicle: water): 109 % of control | T/C (dose: 100.0 mg/kg/injection, schedule: Q01DX009 (ip), vehicle: water): 111 % of control | T/C (dose: 200.0 mg/kg/injection, schedule: Q01DX009 (ip), vehicle: water): 92 % of control

Cc1ccc2c(c1)Pc1cc(C)ccc1S2
T/C [13]: 109 % of control | T/C [14]: 101 % of control | T/C (dose: 240.0 mg/kg/injection, schedule: Q01DX005 (ip), vehicle: Klucel (hydroxypropylcellulose) (HPC)): 104 % of control

O=C1CC2(C(=O)N1CN1CCCCC1)c1ccccc1-c1ccccc12
T/C [9]: 104 % of control and 106 % of control | T/C (dose: 100.0 mg/kg/injection, schedule: Q01DX009 (ip), vehicle: Klucel (hydroxypropylcellulose) (HPC)): 102 % of control and 115 % of control | T/C (dose: 200.0 mg/kg/injection, schedule: Q01DX009 (ip), vehicle: Klucel (hydroxypropylcellulose) (HPC)): 156 % of control

O=C1CCC(c2nc(=S)[nH][nH]2)N1Cc1ccccc1 (stereo not drawn)
T/C [5]: 101 % of control | T/C [6]: 102 % of control | T/C [10]: 101 % of control

COC(=O)C1(C2CCc3cc(OC)ccc3C2=O)NC(=S)NC(=O)C1C#N (stereo not drawn)
T/C (dose: 7.5 mg/kg/injection, schedule: Q01DX005 (ip), vehicle: saline with Tween-80): 96 % of control | T/C (dose: 15.0 mg/kg/injection, schedule: Q01DX005 (ip), vehicle: saline with Tween-80): 97 % of control | T/C (dose: 30.0 mg/kg/injection, schedule: Q01DX005 (ip), vehicle: saline with Tween-80): 93 % of control

CC1Cc2ccccc2/C1=N/NC(N)=O (stereo not drawn)
T/C [15]: 103 % of control | T/C [16]: 100 % of control | T/C [17]: 99 % of control

Oc1ccc(CCC2CCC(c3ccc(O)cc3)CO2)cc1 (stereo not drawn)
T/C [11]: 97 % of control | T/C [12]: 103 % of control | T/C [15]: 86 % of control | T/C [16]: 89 % of control | T/C [17]: 89 % of control

CCOC(=O)c1sc2nc(CN3CCOCC3)[nH]c(=O)c2c1C
T/C [18]: 94 % of control | T/C [19]: 98 % of control | T/C [20]: 98 % of control

CC[N+](C)(CC)C/C(C)=C(/c1ccccc1S(=O)(=O)N(C)C)C(C)C[N+](C)(CC)CC (stereo not drawn)
T/C (dose: 12.5 mg/kg/injection, schedule: Q04DX003 (ip), vehicle: saline): 102 % of control | T/C (dose: 25.0 mg/kg/injection, schedule: Q04DX003 (ip), vehicle: saline): 103 % of control

CCOC(=O)C1=C(C)Nc2cc[nH]c(=O)c2C1c1ccccc1Cl (stereo not drawn)
T/C [5]: 107 % of control | T/C [6]: 103 % of control | T/C [10]: 104 % of control

COC(=O)c1ccc(OC)c(OC)c1-c1c(C(=O)OC)c(C(=O)OC)c2n1CCc1cc3c(cc1-2)OCO3
T/C (dose: 50.0 mg/kg/injection, schedule: Q04DX002 (ip), vehicle: saline with Tween-80): 103 % of control | T/C [7]: 100 % of control | T/C [8]: 90 % of control

O=C(/C(=C\c1ccc(F)cc1)S(=O)(=O)c1ccc(Br)cc1)c1ccccc1
T/C [18]: 100 % of control | T/C [19]: 97 % of control | T/C [20]: 95 % of control

COC(=O)C1=[N+]([O-])c2ccccc2C1C(O)C(=O)OC (stereo not drawn)
T/C [5]: 98 % of control | T/C [6]: 93 % of control | T/C [10]: 98 % of control

CCCCCCCCCCCCCCOCCS(=O)(=O)O
T/C [5]: 86 % of control | T/C [10]: 100 % of control

O=C(Nc1ccccc1)c1nn(-c2cc(S(=O)(=O)[O-])ccc2Cl)[n+](-c2ccccc2Cl)n1
T/C [13]: 101 % of control | T/C [14]: 101 % of control

CCn1nccc1N
T/C (dose: 6.25 mg/kg/injection, schedule: Q01DX005 (ip), vehicle: saline with Tween-80): 98 % of control | T/C (dose: 12.5 mg/kg/injection, schedule: Q01DX005 (ip), vehicle: saline with Tween-80): 106 % of control | T/C [21]: 104 % of control

CCNC(=O)OCc1cnc(C)c(O)c1COC(=O)NCC
T/C [21]: 102 % of control | T/C [18]: 100 % of control | T/C [19]: 99 % of control
